Laboratory results taken from ChEMBL document CHEMBL4840345, “Penispidins A-C, Aromatic Sesquiterpenoids from Penicillium virgatum and Their Inhibitory Effects on Hepatic Lipid Accumulation” (J Nat Prod, 2021).
Activity calls are given as the source filed them. The rule behind the calls is not given here.

Columns and labels:
HepG2 [1] = assay: Cytotoxicity against human HepG2 cells assessed as cell viability at 10 uM measured after 24 hrs by MTT assay; assay type: cell-based; details: hepg2, 24 h
HepG2 [2] = assay: Hypolipidemic activity in human HepG2 cells assessed as inhibition of oleic acid-BSA induced triglyceride accumulation at 10 uM after 24 hrs; assay type: functional, cell-based
HepG2 [3] = assay: Hypolipidemic activity in human HepG2 cells assessed as inhibition of oleic acid-BSA induced intracellular lipid accumulation at 10 uM after 24 hrs by Oil Red O staining based microscopic assay; assay type: functional, cell-based

With `C[C@@]12CCC[C@@](C)(C1)c1ccc(C(=O)O)cc1O2` the Activity (HepG2 [1]) was “Non-Toxic”.

`COC(=O)c1ccc2c(c1)O[C@]1(C)CCC[C@@]2(C)C1` was tested, and the Activity (HepG2 [1]) was “Non-Toxic”.

With `COC(=O)c1ccc2c(c1)OC(C)(C)[C@@H]1CC[C@]21C` the Activity (HepG2 [1]) was “Non-Toxic”, the Activity (HepG2 [2]) was “Active” and the inhibition (HepG2 [3]) was “Active”.

With `C[C@]12CCC[C@](C)(C1)c1ccc(C(=O)O)cc1O2` the Activity (HepG2 [1]) was “Non-Toxic”.
